Test results reported in patent US8846704B2, “Thiopyrimidine-based compounds and uses thereof” (YM Biosciences Austraila Pty Ltd, priority 2007, dated 2014).

molecular target: T1, BaF3 TELJAK3 cells (Homo sapiens, UniProt P52333); assay: Cellular screening, BaF3 TEL:JAK3 cells, Alamar Blue; format: cell-based; conditions: 40 hr, read-out: BafT_J3 IC50_nM
T1 construct: fused on or other part: TEL (ETV6) N-terminal part, coding nucleotides 1-487, serves as the oligomerising partner; It is fused through a Sal I site to the JAK3 kinase domain and expressed from pTRE2 in BaF3 cells bearing pTET-off; P41212 (Transcription factor ETV6)
T1 sequence (P52333 1-1124): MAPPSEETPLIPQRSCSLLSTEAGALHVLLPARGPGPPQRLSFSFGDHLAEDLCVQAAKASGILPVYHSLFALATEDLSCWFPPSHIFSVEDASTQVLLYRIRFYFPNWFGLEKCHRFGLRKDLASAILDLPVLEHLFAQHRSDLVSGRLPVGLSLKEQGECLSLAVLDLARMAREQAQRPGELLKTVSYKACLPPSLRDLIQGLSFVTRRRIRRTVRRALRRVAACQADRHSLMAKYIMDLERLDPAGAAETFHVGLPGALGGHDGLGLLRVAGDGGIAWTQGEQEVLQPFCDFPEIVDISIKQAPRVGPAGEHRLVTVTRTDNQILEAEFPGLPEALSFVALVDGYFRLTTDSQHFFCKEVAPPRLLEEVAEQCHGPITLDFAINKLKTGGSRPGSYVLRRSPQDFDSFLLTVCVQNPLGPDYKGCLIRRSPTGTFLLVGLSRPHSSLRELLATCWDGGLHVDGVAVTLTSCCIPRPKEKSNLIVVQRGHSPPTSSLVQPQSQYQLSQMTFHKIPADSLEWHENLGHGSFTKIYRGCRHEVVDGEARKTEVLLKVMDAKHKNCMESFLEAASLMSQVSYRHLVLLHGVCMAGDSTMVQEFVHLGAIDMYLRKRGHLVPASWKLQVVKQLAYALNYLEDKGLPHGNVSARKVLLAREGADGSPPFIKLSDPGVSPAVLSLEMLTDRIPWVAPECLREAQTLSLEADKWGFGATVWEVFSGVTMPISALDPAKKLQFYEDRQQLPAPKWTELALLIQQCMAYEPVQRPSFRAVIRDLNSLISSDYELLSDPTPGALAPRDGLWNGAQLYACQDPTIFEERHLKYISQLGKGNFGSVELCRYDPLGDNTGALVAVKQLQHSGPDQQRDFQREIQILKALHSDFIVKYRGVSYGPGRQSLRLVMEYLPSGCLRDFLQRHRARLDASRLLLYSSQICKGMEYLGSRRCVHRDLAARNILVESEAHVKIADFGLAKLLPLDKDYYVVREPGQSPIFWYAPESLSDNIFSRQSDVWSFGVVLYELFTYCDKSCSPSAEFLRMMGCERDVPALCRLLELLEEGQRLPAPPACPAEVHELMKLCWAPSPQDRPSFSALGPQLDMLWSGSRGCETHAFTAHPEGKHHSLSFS
Method in brief: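 Alamar Blue signal at 544 nm, developed for 4–6 h, measured viability after 40 h of compound treatment at 37 °C, 5% CO2. Cells were growth-factor-independent BaF3 lines transfected with a TEL/JAK3 kinase-domain fusion under tet-off control. They were cultured in DMEM, 10% Tet-approved FBS, lacking WEHI 3B conditioned medium.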

Cc1cnc(Nc2ccc(N3CCOCC3)cc2)nc1Sc1ccc(N2C(=O)COCC2=O)cc1 [Compound 190, 4-(4-(5-methyl-2-(4-morpholinophenylao)pyrimidin-4-ylthio)phenyl)morpholine-3,5-dione] and Cc1cnc(Nc2ccc(N3CCOCC3)cc2)nc1Sc1ccc(N2CCSCC2=O)cc1 [Compound 197, 4-(4-(5-methyl-2-(4-morpholinophenylao)pyrimidin-4-ylthio)phenyl)thiomorpholin-3-one] cannot be ordered by GI50: over 20 µM for the first, over 20 µM for the second.

NC(=O)c1ccc(Sc2ccnc(Nc3ccc(N4CCOCC4)cc3)n2)cc1 [Compound 207, 4-(2-(4-morpholinophenylao)pyrimidin-4-ylthio)benzamide] and N#CCc1ccc(Sc2ccnc(Nc3ccc(N4CCOCC4)cc3)n2)cc1 [Compound 210, 2-(4-(2-(4-morpholinophenylao)pyrimidin-4-ylthio)phenyl)acetonitrile] cannot be ordered by GI50: over 20 µM for the first, over 20 µM for the second.

N#Cc1ncn(Cc2ccc(Sc3ccnc(Nc4ccc(N5CCOCC5)cc4)n3)cc2)c1N [Compound 202, 5-ao-1-(4-(2-(4-morpholinophenylao)pyrimidin-4-ylthio)benzyl)-1H-imidazole-4-carbonitrile] and N#Cc1c(N)ncn1Cc1ccc(Sc2ccnc(Nc3ccc(N4CCOCC4)cc3)n2)cc1 [Compound 203, 4-ao-1-(4-(2-(4-morpholinophenylao)pyrimidin-4-ylthio)benzyl)-1H-imidazole-5-carbonitrile] cannot be ordered by GI50: under 5 µM for the first, under 1 µM for the second.

Cc1cnc(Nc2cccc(NS(C)(=O)=O)c2)nc1Sc1ccc(CO)cc1 [Compound 226, N-(3-(4-(4-(hydroxymethyl)phenylthio)-5-methylpyrimidin-2-ylao)phenyl)methanesulfonamide] and Cc1cnc(Nc2cccc(S)c2)nc1Sc1ccc(NC(=O)CCl)cc1 [Compound 195, 2-chloro-N-(4-(2-(3-mercaptophenylao)-5-methylpyrimidin-4-ylthio)phenyl)acetamide] cannot be ordered by GI50: under 5 µM for the first, under 20 µM for the second.

Cc1cnc(Nc2ccc(N3CCOCC3)cc2)nc1Sc1ccc(C(C#N)N2CCOCC2)cc1 (stereo not shown) [Compound 223, 2-(4-(5-methyl-2-(4-morpholinophenylao)pyrimidin-4-ylthio)phenyl)-2-morpholinoacetonitrile] and Cc1cnc(Nc2ccc(N3CCOCC3)cc2)nc1Sc1ccc(C(C#N)N2CCN(C)CC2)cc1 (stereo not shown) [Compound 225, 2-(4-(5-methyl-2-(4-morpholinophenylao)pyrimidin-4-ylthio)phenyl)-2-(4-methylpiperazin-1-yl)acetonitrile] cannot be ordered by GI50: under 20 µM for the first, under 5 µM for the second.

Going from Cc1cnc(Nc2ccc(N3CCOCC3)cc2)nc1Sc1ccc(CC#N)cc1 [Compound 222, 2-(4-(5-methyl-2-(4-morpholinophenylao)pyrimidin-4-ylthio)phenyl)acetonitrile] to Cc1cnc(Nc2ccc(N3CCOCC3)cc2)nc1Sc1ccc(CO)cc1 [Compound 220, (4-(5-methyl-2-(4-morpholinophenylao)pyrimidin-4-ylthio)phenyl)methanol], the GI50 falls from over 20 µM to under 5 µM.

CON(C)C(=O)c1ccc(Sc2nc(Nc3ccc(N4CCOCC4)cc3)ncc2C)cc1 [Compound 218, N-methoxy-N-methyl-4-(5-methyl-2-(4-morpholinophenylao)pyrimidin-4-ylthio)benzamide] and Cc1cnc(Nc2ccc(N3CCOCC3)cc2)nc1Sc1ccc(C=O)cc1 [Compound 219, 4-(5-methyl-2-(4-morpholinophenylao)pyrimidin-4-ylthio)benzaldehyde] cannot be ordered by GI50: under 20 µM for the first, under 5 µM for the second.

Compared with Cc1cnc(Nc2ccc(N3CCOCC3)cc2)nc1Sc1ccc(NC2CCOC2=O)cc1 (stereo not shown) [Compound 228, 3-(4-(5-methyl-2-(4-morpholinophenylao)pyrimidin-4-ylthio)phenylao)dihydrofuran-2(3H)-one], Cc1cnc(Nc2ccc(N3CCOCC3)cc2)nc1Sc1ccc(NC(=O)CO)cc1 [Compound 229, 2-hydroxy-N-(4-(5-methyl-2-(4-morpholinophenylao)pyrimidin-4-ylthio)phenyl)acetamide] is lower in GI50: over 20 µM for the first, under 20 µM for the second.

C=CC(=O)Nc1cccc(Nc2nccc(SC)n2)c1 [Compound 7, N-(3-(4-(methylthio)pyrimidin-2-ylao)phenyl)acrylamide] and Cc1cnc(Nc2ccc(O)cc2)nc1Sc1ccc(N)cc1 [Compound 191, 4-(4-(4-aophenylthio)-5-methylpyrimidin-2-ylao)phenol] cannot be ordered by GI50: under 5 µM for the first, under 5 µM for the second.

N#Cc1c(N)ncn1Cc1cccc(Sc2ccnc(Nc3ccc(N4CCOCC4)cc3)n2)c1 [Compound 199, 4-ao-1-(3-(2-(4-morpholinophenylao)pyrimidin-4-ylthio)benzyl)-1H-imiazole-5-carbonitrile] and c1cc(Sc2ccc(Cn3cncn3)cc2)nc(Nc2ccc(N3CCOCC3)cc2)n1 [Compound 204, 4-(4-((1H-1,2,4-triazol-1-yl)methyl)phenylthio)-N-(4-morpholinophenyl)pyrimidin-2-ae] cannot be ordered by GI50: under 20 µM for the first, under 20 µM for the second.

Cc1cnc(Nc2ccc(N3CCOCC3)cc2)nc1Sc1cccc(CO)c1 [Compound 212, (3-(5-methyl-2-(4-morpholinophenylao)pyrimidin-4-ylthio)phenyl)methanol] and Cc1cnc(Nc2ccc(N3CCOCC3)cc2)nc1Sc1ccc(C(=O)N2CCCC2)cc1 [Compound 224, (4-(5-methyl-2-(4-morpholinophenylao)pyrimidin-4-ylthio)phenyl)(pyrrolidin-1-yl)methanone] cannot be ordered by GI50: over 20 µM for the first, over 20 µM for the second.
